Columns and labels:
Test in all cases: relative viability (nuclei count vs DMSO), 5 days (fraction); higher = more cells survive
BAM7 + Decitabine = compound: CCOC1=CC=CC=C1N=NC2=C(NN(C2=O)C3=NC(=CS3)C4=CC=CC=C4)C [BAM7] + Nc1ncn([C@H]2C[C@H](O)[C@@H](CO)O2)c(=O)n1 [Decitabine] (partner 2 µM)
Summary of the method: (§1)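 Relative viability equals treated-well nuclei counts divided by vehicle-well nuclei counts. Counts came from 4× images of lung cancer cell lines grown in 1536-well plates for 5 days after pin-tool dosing on the day after seeding. Dosing used one drug alone or a fixed anchor-drug dose plus five library-drug doses (not always all listed) in √10 steps, and values are medians of duplicate plates.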

[1] = compound: CCn1c(-c2nonc2N)nc2c(C#CC(C)(C)O)ncc(OC[C@H]3CCCNC3)c21 + CC1(C)CCC(c2ccc(Cl)cc2)=C(CN2CCN(c3ccc(C(=O)NS(=O)(=O)c4ccc(N[C@H](CCN5CCOCC5)CSc5ccccc5)c(S(=O)(=O)C(F)(F)F)c4)cc3)CC2)C1 [Navitoclax] (partner 0.5 µM)
Summary of the method: as §1

BAM7 + Trametinib = compound: CCOC1=CC=CC=C1N=NC2=C(NN(C2=O)C3=NC(=CS3)C4=CC=CC=C4)C [BAM7] + CC(=O)Nc1cccc(-n2c(=O)n(C3CC3)c(=O)c3c(Nc4ccc(I)cc4F)n(C)c(=O)c(C)c32)c1 [Trametinib] (partner 0.02 µM)
Summary of the method: as §1

BAM7 + Phenformin = compound: CCOC1=CC=CC=C1N=NC2=C(NN(C2=O)C3=NC(=CS3)C4=CC=CC=C4)C [BAM7] + N=C(N)NC(=N)NCCc1ccccc1 [Phenformin] (partner 250 µM)
Summary of the method: as §1

Row | Cell Line | relative viability (BAM7 + Decitabine; first compound 0.5 µM) | relative viability (BAM7 + Decitabine; first compound 5 µM) | relative viability (BAM7 + Decitabine; first compound 15.81 µM) | relative viability (BAM7 + Decitabine; first compound 50 µM) | relative viability ([1]; first compound 0.01 µM) | relative viability ([1]; first compound 0.03162 µM) | relative viability ([1]; first compound 0.1 µM) | relative viability ([1]; first compound 0.3162 µM) | relative viability ([1]; first compound 1 µM) | relative viability (BAM7 + Trametinib; first compound 0.5 µM) | relative viability (BAM7 + Trametinib; first compound 5 µM) | relative viability (BAM7 + Trametinib; first compound 15.81 µM) | relative viability (BAM7 + Trametinib; first compound 50 µM) | relative viability (BAM7 + Phenformin; first compound 0.5 µM) | relative viability (BAM7 + Phenformin; first compound 5 µM) | relative viability (BAM7 + Phenformin; first compound 15.81 µM) | relative viability (BAM7 + Phenformin; first compound 50 µM)
1 | NCI-H460 | 0.475 | 0.455 | 0.473 | 0.449 | 1.1 | 1.17 | 1.13 | 1.05 | 1.19 | 0.0937 | 0.124 | 0.145 | 0.13 | 0.521 | 0.573 | 0.513 | 0.534
2 | EKVX | 0.372 | 0.355 | 0.284 | 0.334 | 0.882 | 0.858 | 0.927 | 0.908 | 0.853 | 0.474 | 0.301 | 0.294 | 0.308 | 0.241 | 0.235 | 0.198 | 0.231
3 | EPLC-272H | 0.382 | 0.418 | 0.317 | 0.392 | 1.24 | 1.21 | 0.932 | 1.16 | 0.906 | 0.292 | 0.31 | 0.252 | 0.28 | 0.291 |  | 0.322 | 0.281
4 | NCI-H1395 | 0.729 | 0.875 | 0.707 | 0.722 | 1.04 | 1.14 | 1.11 | 1.08 | 0.882 | 0.972 | 1.28 | 0.946 | 1.06 | 0.444 | 0.522 | 0.446 | 0.538
5 | NCI-H2126 | 0.55 | 0.548 | 0.509 | 0.617 | 0.908 | 0.848 | 0.847 | 0.927 | 0.88 | 0.516 | 0.499 | 0.519 | 0.476 | 0.494 | 0.54 | 0.473 | 0.556
6 | LXF-289 | 0.341 | 0.339 | 0.353 | 0.407 | 0.978 | 0.949 | 0.935 | 0.886 | 0.926 | 0.739 | 0.762 | 0.734 | 0.641 | 0.556 | 0.552 | 0.524 | 0.516
7 | NCI-H2009 | 0.369 | 0.39 | 0.351 | 0.418 | 1.17 | 1.17 | 1.2 | 1.12 | 1.11 | 0.265 | 0.229 | 0.268 | 0.283 | 0.497 | 0.542 | 0.426 | 0.465
8 | NCI-H2405 | 0.765 | 0.804 | 0.757 | 0.73 | 0.892 | 0.873 |  | 0.883 | 1 | 0.596 | 0.706 | 0.477 | 0.715 | 0.395 | 0.411 | 0.416 | 0.435
9 | NCI-H1755 | 0.667 | 0.774 | 0.711 | 0.793 | 0.985 | 0.984 | 0.981 | 0.958 | 1.01 | 0.749 | 0.805 | 0.705 | 0.779 | 0.657 | 0.657 | 0.611 | 0.645
10 | HCC-78 | 0.965 | 0.696 | 0.731 | 0.752 | 0.661 | 0.826 | 0.678 | 0.654 | 0.71 | 0.579 | 0.805 | 0.689 | 0.819 | 0.619 | 0.583 | 0.796 | 0.777
11 | LOU-NH91 | 0.815 | 0.859 | 0.783 | 0.799 | 0.691 | 0.709 | 0.697 | 0.632 | 0.572 | 0.794 | 0.788 | 0.804 | 0.805 | 0.689 | 0.795 | 0.66 | 0.66
12 | NCI-H3122 | 0.506 | 0.514 | 0.447 | 0.444 | 1.05 | 1 | 1.06 | 1.01 | 1.04 | 0.24 | 0.232 | 0.283 | 0.198 | 0.362 | 0.371 | 0.329 | 0.35
13 | HCC-827 | 0.314 | 0.314 | 0.376 | 0.302 | 1.03 | 0.985 | 1.06 | 1.03 | 1.04 | 0.535 | 0.548 | 0.591 | 0.556 | 0.397 | 0.373 | 0.453 | 0.362
14 | SK-LU-1 | 0.626 | 0.629 | 0.693 | 0.697 | 0.89 | 0.936 | 0.99 | 0.921 | 0.761 | 0.575 | 0.525 | 0.527 | 0.499 | 0.556 | 0.733 | 0.532 | 0.619
15 | NCI-H1975 | 0.372 | 0.377 | 0.351 | 0.382 | 1.03 | 1.3 | 1.12 | 1.14 | 1.03 | 0.329 | 0.366 | 0.332 | 0.415 | 0.401 | 0.425 | 0.391 | 0.427
16 | NCI-H1651 | 0.598 | 0.66 | 0.617 | 0.599 | 1.06 | 1.02 | 1.01 | 1.14 | 1 | 0.859 | 0.842 | 0.835 | 0.862 | 0.306 | 0.303 | 0.343 | 0.354
17 | NCI-H441 | 0.291 | 0.251 | 0.235 | 0.209 | 0.48 | 0.626 | 0.591 | 0.65 | 0.556 | 0.522 | 0.518 | 0.498 | 0.496 | 0.866 | 1.1 | 0.779 | 0.923
18 | LCLC-97TM1 | 0.252 | 0.269 |  | 0.24 |  | 0.337 | 0.475 | 0.641 | 0.328 | 0.202 | 0.199 |  | 0.224 | 0.45 | 0.443 | 0.43 | 0.473
19 | NCI-H727 | 0.894 | 0.954 | 0.89 | 0.808 | 0.387 | 0.376 | 0.563 | 0.373 | 0.418 | 0.413 | 0.414 | 0.393 | 0.386 | 0.42 |  | 0.576 | 0.603

Reference: the supplement of paper PMC10307832
